# Read-outs that look alike come from different tables or passages of the source.
# Experiments:
# C. perfringens MH310 = experiment: microbe, parasite or virus in culture; assay type: cell-based
# C. difficile = experiment: Minimum bactericidal concentration (MBC) against C. difficile; assay type: cell-based, Clostridium difficile
# CD strains = experiment: In vitro activity of CFM + additional antimicrobial agent against CD (MIC alone/combination, FIC, ΣFIC); assay type: cell-based, Clostridium difficile; conditions: CFM + VAN; for MIC: Clostridioides difficile
# Escherichia coli strains = experiment: MIC by microdilution in Mueller-Hinton broth against Escherichia coli strains; assay type: cell-based
# Enterococcus faecalis = experiment: MIC by microdilution in Mueller-Hinton broth against Enterococcus faecalis strains; assay type: cell-based; conditions: Enterococcus faecalis
# Enterococci faecium = experiment: MIC by microdilution in Mueller-Hinton broth against Enterococci faecium strains; assay type: cell-based, Enterococcus faecium
# [1] = test system: Staphylococcus aureus strains; experiment: MIC by microdilution in Mueller-Hinton broth against Staphylococcus aureus strains; assay type: cell-based; conditions: Staphylococcus aureus
# Fusobacterium = experiment: MIC by microdilution in Brucella broth against Fusobacterium; assay type: cell-based, Fusobacterium spp.
# Lactobacillus strains = experiment: MIC against Lactobacillus strains; assay type: cell-based, Lactobacillus spp.
# [2] = test system: Lachnospiraceae and related bacterial strains; experiment: MIC against Lachnospiraceae and related bacterial strains; assay type: cell-based, Lachnospiraceae spp.
# C. difficile VPI10463 = conditions: Clostridioides difficile, C. difficile VPI10463
# [3] = Test 13, CD strain BAA1805 (BI/NAP1/027)
# [4] = Test 16, CD strain BAA1805 (BI/NAP1/027)
smiles,measurement,setting,value
"CN[C@H](CC(C)C)C(=O)N[C@H]1C(=O)N[C@@H](CC(N)=O)C(=O)N[C@H]2C(=O)N[C@H]3C(=O)N[C@H](C(=O)N[C@H](C(=O)O)c4cc(O)cc(O)c4-c4cc3ccc4O)[C@H](O)c3ccc(c(Cl)c3)Oc3cc2cc(c3O[C@@H]2O[C@H](CO)[C@@H](O)[C@H](O)[C@H]2O[C@H]2C[C@](C)(N)[C@H](O)[C@H](C)O2)Oc2ccc(cc2Cl)[C@H]1O [VAN, vancomycin]",MIC,C. perfringens MH310,0.25 µg/mL
same,MIC,"C. perfringens MH310; Clostridium perfringens, MH310",0.5 µg/mL
same,MBC/MIC ratio range,C. difficile,1-4
same,MBC,"C. difficile; Clostridioides difficile, BAA1805",2 µg/mL
same,MIC,"CD strains; BAA1805, read-out: MIC alone, Test 13, CD strain BAA1805 (BI/NAP1/027)",0.5 µg/mL
same,MIC,"CD strains; BAA1805, read-out: MIC alone, Test 16, CD strain BAA1805 (BI/NAP1/027)",0.5 µg/mL
same,MIC,"CD strains; read-out: MIC alone, Test 1, CD strain VPI 10463",2 µg/mL
same,MIC,"CD strains; read-out: MIC alone, Test 2, CD strain VPI 10463",2 µg/mL
same,MIC,"CD strains; read-out: MIC alone, Test 5, CD strain NR32889",2 µg/mL
same,MIC,"CD strains; read-out: MIC alone, Test 6, CD strain NR32890",1 µg/mL
same,MIC,"CD strains; read-out: MIC alone, Test 7, CD strain NR32885",1 µg/mL
same,MIC,"CD strains; read-out: MIC alone, Test 9, CD strain NR32885",1 µg/mL
same,MIC,"CD strains; read-out: MIC alone, Test 11, CD strain NR32885",1 µg/mL
same,MIC,"CD strains; read-out: MIC alone, Test 18, CD strain NR32888",0.5 µg/mL
same,MIC,"CD strains; read-out: MIC alone, Test 20, CD strain NR32888",0.5 µg/mL
same,FIC,"CD strains; Test 1, CD strain VPI 10463",0.25
same,MIC combination,"CD strains; Test 1, CD strain VPI 10463",0.5 µg/mL
same,FIC,"CD strains; Test 2, CD strain VPI 10463",0.25
same,MIC combination,"CD strains; Test 2, CD strain VPI 10463",0.5 µg/mL
same,FIC,"CD strains; Test 5, CD strain NR32889",1
same,MIC combination,"CD strains; Test 5, CD strain NR32889",2 µg/mL
same,FIC,"CD strains; Test 6, CD strain NR32890",0.5
same,MIC combination,"CD strains; Test 6, CD strain NR32890",0.5 µg/mL
same,FIC,"CD strains; Test 7, CD strain NR32885",0.5
same,MIC combination,"CD strains; Test 7, CD strain NR32885",0.5 µg/mL
same,FIC,"CD strains; Test 9, CD strain NR32885",0.25
same,MIC combination,"CD strains; Test 9, CD strain NR32885",0.25 µg/mL
same,FIC,"CD strains; Test 11, CD strain NR32885",0.25
same,MIC combination,"CD strains; Test 11, CD strain NR32885",0.25 µg/mL
same,FIC,CD strains; [3],0.062
same,MIC combination,CD strains; [3],0.031 µg/mL
same,FIC,CD strains; [4],0.25
same,MIC combination,CD strains; [4],0.125 µg/mL
same,FIC,"CD strains; Test 18, CD strain NR32888",0.5
same,MIC combination,"CD strains; Test 18, CD strain NR32888",0.25 µg/mL
same,FIC,"CD strains; Test 20, CD strain NR32888",0.5
same,MIC combination,"CD strains; Test 20, CD strain NR32888",0.25 µg/mL
same,MIC,"Escherichia coli strains; E. coli NR 6, Mueller-Hinton broth",>32 µg/mL
same,MIC,"Escherichia coli strains; E. coli NR 8, Mueller-Hinton broth",>32 µg/mL
same,MIC,"Escherichia coli strains; E. coli NR 96, Mueller-Hinton broth",>32 µg/mL
same,MIC,"Escherichia coli strains; E. coli NR 104, Mueller-Hinton broth",>32 µg/mL
same,MIC,"Escherichia coli strains; E. coli NR 17626, Mueller-Hinton broth",>32 µg/mL
same,MIC,"Escherichia coli strains; E. coli NR 17627, Mueller-Hinton broth",>32 µg/mL
same,MIC,"Escherichia coli strains; E. coli NR 17633, Mueller-Hinton broth",>32 µg/mL
same,MIC,"Escherichia coli strains; E. coli NR 17647, Mueller-Hinton broth",>32 µg/mL
same,MIC,"Escherichia coli strains; E. coli NR 17650, Mueller-Hinton broth",>32 µg/mL
same,MIC,"Escherichia coli strains; E. coli NR 17661, Mueller-Hinton broth",>32 µg/mL
same,MIC,Escherichia coli strains; Escherichia coli,> 32 µg/mL
same,MIC,"Escherichia coli strains; Escherichia coli strain NR 6, Mueller-Hinton broth",>32 µg/mL
same,MIC,"Escherichia coli strains; Escherichia coli strain NR 8, Mueller-Hinton broth",>32 µg/mL
same,MIC,"Escherichia coli strains; Escherichia coli strain NR 96, Mueller-Hinton broth",>32 µg/mL
same,MIC,"Escherichia coli strains; Escherichia coli strain NR 17626, Mueller-Hinton broth",>32 µg/mL
same,MIC,"Escherichia coli strains; Escherichia coli strain NR 17627, Mueller-Hinton broth",>32 µg/mL
same,MIC,"Escherichia coli strains; Escherichia coli strain NR 17633, Mueller-Hinton broth",>32 µg/mL
same,MIC,"Escherichia coli strains; Escherichia coli strain NR 17647, Mueller-Hinton broth",>32 µg/mL
same,MIC,"Escherichia coli strains; Escherichia coli strain NR 17650, Mueller-Hinton broth",>32 µg/mL
same,MIC,"Escherichia coli strains; Escherichia coli strain NR 17661, Mueller-Hinton broth",>32 µg/mL
same,MIC,Enterococcus faecalis; E. faecalis NR 31884,2 µg/mL
same,MIC,Enterococcus faecalis; E. faecalis NR 31885,2 µg/mL
same,MIC,Enterococcus faecalis; E. faecalis NR 31886,1 µg/mL
same,MIC,Enterococcus faecalis; E. faecalis NR 31887,1 µg/mL
same,MIC,Enterococcus faecalis; E. faecalis NR 31888,2 µg/mL
same,MIC,"Enterococci faecium; E. faecium NR 31909, Mueller-Hinton broth",>32 µg/mL
same,MIC,"Enterococci faecium; E. faecium NR 31912, Mueller-Hinton broth",>32 µg/mL
same,MIC,"Enterococci faecium; E. faecium NR 31915, Mueller-Hinton broth",>32 µg/mL
same,MIC,"Enterococci faecium; E. faecium NR 31916, Mueller-Hinton broth",>32 µg/mL
same,MIC,Enterococci faecium; Enterococcus faecium,> 32 µg/mL
same,MIC,[1]; S. aureus NR 10129,1 µg/mL
same,MIC,[1]; S. aureus NR 10186,1 µg/mL
same,MIC,[1]; S. aureus NR 10187,2 µg/mL
same,MIC,[1]; S. aureus NR 10188,1 µg/mL
same,MIC,[1]; S. aureus NR 10189,2 µg/mL
same,MIC,[1]; S. aureus NR 10191,1 µg/mL
same,MIC,[1]; S. aureus NR 10192,1 µg/mL
same,MIC,[1]; S. aureus NR 10193,2 µg/mL
same,MIC,[1]; S. aureus NR 10194,1 µg/mL
same,MIC,[1]; S. aureus NR 10198,2 µg/mL
same,MIC,[1]; Staphylococcus aureus strain NR 10129,1 µg/mL
same,MIC,[1]; Staphylococcus aureus strain NR 10186,1 µg/mL
same,MIC,[1]; Staphylococcus aureus strain NR 10187,2 µg/mL
same,MIC,[1]; Staphylococcus aureus strain NR 10188,1 µg/mL
same,MIC,[1]; Staphylococcus aureus strain NR 10189,2 µg/mL
same,MIC,[1]; Staphylococcus aureus strain NR 10191,1 µg/mL
same,MIC,[1]; Staphylococcus aureus strain NR 10192,1 µg/mL
same,MIC,[1]; Staphylococcus aureus strain NR 10193,2 µg/mL
same,MIC,[1]; Staphylococcus aureus strain NR 10194,1 µg/mL
same,MIC,[1]; Staphylococcus aureus strain NR 10198,2 µg/mL
same,MIC,Fusobacterium,> 32 µg/mL
same,MIC,Fusobacterium; Fusobacterium,> 32 µg/mL
same,in vitro activity against Lactobacillus spp. (in words),Lactobacillus strains,six strains susceptible and four resistant
same,susceptibility of Lachnospiraceae and related organisms (in words),[2],susceptible
same,MIC,[2]; Clostridiales bacterium,0.25 µg/mL
same,MIC,"C. difficile VPI10463; VPI10463, Expt. 1, fecal extract (human feces 20% w/v in BHI)",1 µg/mL
same,MIC,"C. difficile VPI10463; VPI10463, Expt. 1, −fecal extract",0.5 µg/mL
same,MIC,"C. difficile VPI10463; VPI10463, Expt. 2, +fecal extract (human feces 20% w/v in BHI)",0.5 µg/mL
same,MIC,"C. difficile VPI10463; VPI10463, Expt. 2, −fecal extract",0.5 µg/mL

# Source: patent publication US9849130B2 (KamTek, Inc., priority 2014, dated 2017)
